Measurements reported in ChEMBL document CHEMBL4622981, “Exploration of TRPM8 Binding Sites by β-Carboline-Based Antagonists and Their In Vitro Characterization and In Vivo Analgesic Activities” (J Med Chem, 2020).
Calls of active or inactive are those of the source. The rule behind the calls is not given here.

Tests used:
[1] = Stability in human liver microsomes at 2.5 mM measured up to 60 mins in absence of phase 1 cofactor NADPH by HPLC analysis; type: ADME, Microsome; details: 1 h, 2500 µM
[2] = Stability in human liver microsomes at 2.5 mM measured up to 60 mins in absence of phase 2 cofactor UDP-GlcUA/NADPH by HPLC analysis; type: ADME, Microsome; details: 1 h, 2500 µM
[3] = Stability in human liver microsomes assessed as metabolic turnover at 2.5 mM preincubated for 5 mins followed by phase 1 cofactor NADPH addition measured for 60 mins by HPLC analysis; type: ADME, Microsome; details: read-out: Drug metabolism
[4] = tested on: Rattus norvegicus; assay: Inhibition of icilin-induced wet-dog shake in Wistar rat model at 10 mg/kg, ip treated 30 mins prior to icilin challenge measured for 30 mins; type: functional, organism-based
[5] = tested on: Rattus norvegicus; assay: Inhibition of icilin-induced wet-dog shake in Wistar rat model at 10 mg/kg, ip treated 2 hrs prior to icilin challenge measured for 30 mins; type: functional, organism-based

SMILES: O=C1N[C@H](Cc2ccccc2)C(=O)N2Cc3[nH]c4ccccc4c3C[C@@H]12
- Stability [1]: Stable
- Stability [2]: Stable
- metabolised at 1 h [3]: 1.1 to 72%

SMILES: O=C1[C@@H]2Cc3c([nH]c4ccccc34)[C@@H](c3ccc(Cl)cc3)N2C(=O)N1Cc1ccc(F)cc1
- Stability [1]: Stable
- Stability [2]: Stable
- metabolised at 1 h [3]: 26.5%

SMILES: COC(=O)C(Cc1c[nH]c2ccccc12)N(Cc1ccccc1)Cc1ccccc1 (centres undefined)
- Stability [1]: Stable
- Stability [2]: Stable
- inhibition [4]: Active
- inhibition [5]: inactive

SMILES: COC(=O)CC[C@H]1N[C@H](C(=O)NCc2ccc(F)cc2)Cc2c1[nH]c1ccccc21
- metabolised at 1 h [3]: 1.1 to 72%

SMILES: COC(=O)[C@@H]1Cc2c([nH]c3ccccc23)[C@@H](c2ccccc2)N1Cc1ccccc1
- Stability [1]: Stable
- Stability [2]: Stable
- metabolised at 1 h [3]: 1.1 to 72%
